#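 Protocol summary: plate cells (96-well), add compound at 5 concentrations, incubate 48 h, interpolate endpoints linearly. The concentration for 50% growth inhibition is given as GI50. Definition used: TGI = concentration required for complete inhibition of growth.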
# What was measured:
# Experiment in all cases: DTP human tumour cell line panel, 48 h
# CCRF-CEM leukemia = tested on: CCRF-CEM leukemia
# EKVX NSCLC = tested on: EKVX NSCLC
# HOP-92 NSCLC = tested on: HOP-92 NSCLC
# OVCAR-5 ovarian = tested on: OVCAR-5 ovarian
# NCI-H460 lung = tested on: NCI-H460 lung
# NCI/ADR-RES ovarian = tested on: NCI/ADR-RES ovarian
# SF-539 CNS = tested on: SF-539 CNS
# LOX IMVI melanoma = tested on: LOX IMVI melanoma
# T-47D breast = tested on: T-47D breast
# NCI-H226 lung = tested on: NCI-H226 lung
# HCT-15 colon = tested on: HCT-15 colon
# MCF7 breast = tested on: MCF7 breast
# K-562 leukemia = tested on: K-562 leukemia
# ACHN renal = tested on: ACHN renal
# RPMI-8226 leukemia = tested on: RPMI-8226 leukemia
# OVCAR-4 ovarian = tested on: OVCAR-4 ovarian
# CAKI-1 renal = tested on: CAKI-1 renal
# UO-31 renal = tested on: UO-31 renal
# HCT-116 colon = tested on: HCT-116 colon
# OVCAR-3 ovarian = tested on: OVCAR-3 ovarian
# IGROV1 ovarian = tested on: IGROV1 ovarian
# NCI-H23 lung = tested on: NCI-H23 lung
# OVCAR-8 ovarian = tested on: OVCAR-8 ovarian
# UACC-62 melanoma = tested on: UACC-62 melanoma
# UACC-257 melanoma = tested on: UACC-257 melanoma
# HOP-62 NSCLC = tested on: HOP-62 NSCLC
# SNB-19 CNS = tested on: SNB-19 CNS
# MOLT-4 leukemia = tested on: MOLT-4 leukemia
# HL-60(TB) leukemia = tested on: HL-60(TB) leukemia
# U251 CNS = tested on: U251 CNS
# MDA-MB-231 breast = tested on: MDA-MB-231 breast
# KM12 colon = tested on: KM12 colon
# A549 NSCLC = tested on: A549 NSCLC
# SK-MEL-28 melanoma = tested on: SK-MEL-28 melanoma
# DU-145 prostate = tested on: DU-145 prostate
# PC-3 prostate = tested on: PC-3 prostate
# SK-OV-3 ovarian = tested on: SK-OV-3 ovarian
# SW-620 colon = tested on: SW-620 colon
# SK-MEL-5 melanoma = tested on: SK-MEL-5 melanoma
# M14 melanoma = tested on: M14 melanoma
# MALME-3M melanoma = tested on: MALME-3M melanoma
# SF-268 CNS = tested on: SF-268 CNS
# COLO 205 colon = tested on: COLO 205 colon
# SR leukemia = tested on: SR leukemia
# SNB-75 CNS = tested on: SNB-75 CNS
# MDA-MB-435 = tested on: MDA-MB-435
# HCC-2998 colon = tested on: HCC-2998 colon
# 786-0 renal = tested on: 786-0 renal
# SF-295 CNS = tested on: SF-295 CNS
# RXF 393 renal = tested on: RXF 393 renal
# HS 578T breast = tested on: HS 578T breast
# A498 renal = tested on: A498 renal
smiles,measurement,setting,value
CC(=O)Nc1ccc2c(c1)CN1C(=O)c3ccccc3C1=N2,GI50,CCRF-CEM leukemia,> 100 µM
same,TGI,CCRF-CEM leukemia,> 100 µM
same,GI50,EKVX NSCLC,> 100 µM
same,TGI,EKVX NSCLC,> 100 µM
same,GI50,HOP-92 NSCLC,> 100 µM
same,TGI,HOP-92 NSCLC,> 100 µM
same,GI50,OVCAR-5 ovarian,> 100 µM
same,TGI,OVCAR-5 ovarian,> 100 µM
same,GI50,NCI-H460 lung,> 100 µM
same,TGI,NCI-H460 lung,> 100 µM
same,GI50,NCI/ADR-RES ovarian,> 100 µM
same,TGI,NCI/ADR-RES ovarian,> 100 µM
same,GI50,SF-539 CNS,> 100 µM
same,TGI,SF-539 CNS,> 100 µM
same,GI50,LOX IMVI melanoma,> 100 µM
same,TGI,LOX IMVI melanoma,> 100 µM
same,GI50,T-47D breast,> 100 µM
same,TGI,T-47D breast,> 100 µM
same,GI50,NCI-H226 lung,> 100 µM
same,TGI,NCI-H226 lung,> 100 µM
same,GI50,HCT-15 colon,> 100 µM
same,TGI,HCT-15 colon,> 100 µM
same,GI50,MCF7 breast,> 100 µM
same,TGI,MCF7 breast,> 100 µM
same,GI50,K-562 leukemia,> 100 µM
same,TGI,K-562 leukemia,> 100 µM
same,GI50,ACHN renal,> 100 µM
same,TGI,ACHN renal,> 100 µM
same,GI50,RPMI-8226 leukemia,> 100 µM
same,TGI,RPMI-8226 leukemia,> 100 µM
same,GI50,OVCAR-4 ovarian,> 100 µM
same,TGI,OVCAR-4 ovarian,> 100 µM
same,GI50,CAKI-1 renal,> 100 µM
same,TGI,CAKI-1 renal,> 100 µM
same,GI50,UO-31 renal,> 100 µM
same,TGI,UO-31 renal,> 100 µM
same,GI50,HCT-116 colon,> 100 µM
same,TGI,HCT-116 colon,> 100 µM
same,GI50,OVCAR-3 ovarian,> 100 µM
same,TGI,OVCAR-3 ovarian,> 100 µM
same,GI50,IGROV1 ovarian,> 100 µM
same,TGI,IGROV1 ovarian,> 100 µM
same,GI50,NCI-H23 lung,> 100 µM
same,TGI,NCI-H23 lung,> 100 µM
same,GI50,OVCAR-8 ovarian,> 100 µM
same,TGI,OVCAR-8 ovarian,> 100 µM
same,GI50,UACC-62 melanoma,> 100 µM
same,TGI,UACC-62 melanoma,> 100 µM
same,GI50,UACC-257 melanoma,> 100 µM
same,TGI,UACC-257 melanoma,> 100 µM
same,GI50,HOP-62 NSCLC,> 100 µM
same,TGI,HOP-62 NSCLC,> 100 µM
same,GI50,SNB-19 CNS,> 100 µM
same,TGI,SNB-19 CNS,> 100 µM
same,GI50,MOLT-4 leukemia,> 100 µM
same,TGI,MOLT-4 leukemia,> 100 µM
same,GI50,HL-60(TB) leukemia,> 100 µM
same,TGI,HL-60(TB) leukemia,> 100 µM
same,GI50,U251 CNS,> 100 µM
same,TGI,U251 CNS,> 100 µM
same,GI50,MDA-MB-231 breast,> 100 µM
same,TGI,MDA-MB-231 breast,> 100 µM
same,GI50,KM12 colon,> 100 µM
same,TGI,KM12 colon,> 100 µM
same,GI50,A549 NSCLC,> 100 µM
same,TGI,A549 NSCLC,> 100 µM
same,GI50,SK-MEL-28 melanoma,> 100 µM
same,TGI,SK-MEL-28 melanoma,> 100 µM
same,GI50,DU-145 prostate,> 100 µM
same,TGI,DU-145 prostate,> 100 µM
same,GI50,PC-3 prostate,> 100 µM
same,TGI,PC-3 prostate,> 100 µM
same,GI50,SK-OV-3 ovarian,> 100 µM
same,TGI,SK-OV-3 ovarian,> 100 µM
same,GI50,SW-620 colon,> 100 µM
same,TGI,SW-620 colon,> 100 µM
same,GI50,SK-MEL-5 melanoma,> 100 µM
same,TGI,SK-MEL-5 melanoma,> 100 µM
same,GI50,M14 melanoma,> 100 µM
same,TGI,M14 melanoma,> 100 µM
same,GI50,MALME-3M melanoma,> 100 µM
same,TGI,MALME-3M melanoma,> 100 µM
same,GI50,SF-268 CNS,> 100 µM
same,TGI,SF-268 CNS,> 100 µM
same,GI50,COLO 205 colon,> 100 µM
same,TGI,COLO 205 colon,> 100 µM
same,GI50,SR leukemia,> 100 µM
same,TGI,SR leukemia,> 100 µM
same,GI50,SNB-75 CNS,> 100 µM
same,TGI,SNB-75 CNS,> 100 µM
same,GI50,MDA-MB-435,> 100 µM
same,TGI,MDA-MB-435,> 100 µM
same,GI50,HCC-2998 colon,> 100 µM
same,TGI,HCC-2998 colon,> 100 µM
same,GI50,786-0 renal,> 100 µM
same,TGI,786-0 renal,> 100 µM
same,GI50,SF-295 CNS,> 100 µM
same,TGI,SF-295 CNS,> 100 µM
same,GI50,RXF 393 renal,> 100 µM
same,TGI,RXF 393 renal,> 100 µM
same,GI50,HS 578T breast,> 100 µM
same,TGI,HS 578T breast,> 100 µM
same,GI50,A498 renal,> 100 µM
same,TGI,A498 renal,> 100 µM

# — PubChem BioAssay (NCI)
